Assay results: patent US20050228007A1, “Isoquinoline derivatives and methods of use thereof” (priority 2004, published 2005)

Experiments:
[1] = molecular target: T1, PARS (Mus musculus, UniProt P11103); experiment: PARS activation in peroxynitrite-treated cultured macrophages (whole-cell 3H-NAD+ assay); format: cell-based; conditions: cultured murine macrophages; for inhibition at 0.1 µM / % PARS inhibition at 100 nM: 100 nM; for % PARS inhibition at 300 nM / inhibition at 0.3 µM: 300 nM
T1 construct: endogenous in cells; host or cells: RAW mouse macrophages
Description: Raw mouse macrophages were cultured in DMEM medium with high glucose and supplemented with 10% fetal bovine serum. Cells were used at 80% confluence in 12-well plates. Cells were pretreated with various concentrations (100 nM -1 µM) of an Isoquinoline Derivative for 10 min. Peroxynitrite, a prototypical oxidant which induces DNA single strand breakage, was used to induce PARS activation. Peroxynitrite was diluted in phosphate buffered saline (PBS) (pH 11.0) and added to the cells in a bolus of 50 μl. Cells were then incubated for 20 min. […] After the 20 min incubation, the cells were spun, the medium was aspirated and the cells were resuspended in 0.5 ml assay buffer (56 mM HEPES pH 7.5, 28 mM KCl, 28 mM NaCl, 2 mM MgCl2, 0.01% w/v digitonin and 0.125 μM NAD^+ and 0.5 μCi/ml ^3H-NAD^+). Following an incubation in assay buffer, (10 min at 37° C.), PARS activity was measured as follows: 200 μl ice cold 50% w/v TCA was added and the samples were incubated for 4 hours at 4° C. Samples were then spun (10 min @ 10,000 g) and pellets washed twice with ice cold 5% w/v TCA and solubilized overnight in 250 μl 2% w/v SDS/0.1 N NaOH at 37° C. The contents of the tubes were added to 6.5 ml ScintiSafe Plus scintillation liquid (Fisher Scientific) and radioactivity was determined using a liquid scintillation counter (Wallac, Gaithersburg, Md.).

[2] = molecular target: T1, PARS; experiment: Cell protection assay, peroxynitrite-treated raw mouse macrophages; format: cell-based; conditions: peroxynitrite 750 μM

T1 sequence (P11103 whole entry): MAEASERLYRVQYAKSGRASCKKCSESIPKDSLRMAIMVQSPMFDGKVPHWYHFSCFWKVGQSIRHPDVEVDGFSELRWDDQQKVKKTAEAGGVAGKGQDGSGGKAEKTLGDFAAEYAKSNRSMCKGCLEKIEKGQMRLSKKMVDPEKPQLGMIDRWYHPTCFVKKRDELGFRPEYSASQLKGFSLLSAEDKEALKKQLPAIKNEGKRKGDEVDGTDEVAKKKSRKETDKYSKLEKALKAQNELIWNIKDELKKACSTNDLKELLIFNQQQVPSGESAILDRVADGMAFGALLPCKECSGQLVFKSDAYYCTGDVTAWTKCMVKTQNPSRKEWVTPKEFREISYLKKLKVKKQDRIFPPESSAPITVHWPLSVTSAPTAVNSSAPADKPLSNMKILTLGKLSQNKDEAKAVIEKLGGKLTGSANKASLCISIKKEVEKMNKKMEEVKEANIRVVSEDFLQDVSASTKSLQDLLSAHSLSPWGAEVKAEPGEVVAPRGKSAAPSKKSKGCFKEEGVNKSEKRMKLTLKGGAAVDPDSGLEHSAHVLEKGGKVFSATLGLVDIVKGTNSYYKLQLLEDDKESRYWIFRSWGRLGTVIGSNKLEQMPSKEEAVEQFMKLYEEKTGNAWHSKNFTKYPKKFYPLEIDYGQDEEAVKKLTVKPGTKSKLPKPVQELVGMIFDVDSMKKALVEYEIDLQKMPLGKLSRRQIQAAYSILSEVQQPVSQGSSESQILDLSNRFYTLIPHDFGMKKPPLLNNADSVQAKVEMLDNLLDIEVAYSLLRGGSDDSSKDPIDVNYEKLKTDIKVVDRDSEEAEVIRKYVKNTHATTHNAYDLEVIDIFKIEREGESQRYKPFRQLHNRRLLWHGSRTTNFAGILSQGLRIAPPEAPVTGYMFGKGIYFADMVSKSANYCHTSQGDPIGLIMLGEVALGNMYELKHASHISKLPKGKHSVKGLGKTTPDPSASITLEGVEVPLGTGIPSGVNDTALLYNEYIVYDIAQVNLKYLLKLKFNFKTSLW

**Q.** Which “% PARS inhibition at 300 nM” value [1] does the source give for `O=c1[nH]c2c(c3ccccc13)Cc1cc(S(=O)(=O)NCCCN3CCCC3)ccc1-2` [Compound 8m, 9-[N-(3-[tetrahydropyrrolodino-1-yl]propyl)aminosulphonyl]-5,6-dihydro-5-oxo-11H-indeno-[1,2-c]isoquinoline] here?
**A.** 50%

**Q.** Which results are given for `O=c1[nH]c2c(c3ccccc13)C(Br)c1ccccc1-2` (racemic) [Compound 4b, (±) 11-bromo-5,6-dihydro-5-oxo-11H-indeno[1,2-c]isoquinoline]?
**A.** inhibition at 0.1 µM [1]: 51%; inhibition at 1 µM [1]: 88%

**Q.** `CN1CCN(C2c3ccccc3-c3[nH]c(=O)c4ccccc4c32)CC1` (racemic) [Compound 5c, (±) 11-(N-methylpiperazin)-5,6-dihydro-5-oxo-11H-indeno[1,2-c]isoquinoline] was tested. Which “% PARS inhibition at 100 nM” value [1] did it give?
**A.** 0%

**Q.** What about the “% PARS inhibition at 1 μM” value [1] of the same compound?
**A.** 24%

**Q.** How did the inhibition at 0.3 µM [1] turn out when `CC1(O)c2ccccc2-c2[nH]c(=O)c3ccccc3c21` (racemic) [Compound 3b, (±) 11-hydroxy-11-methyl-5,6-dihydro-5-oxo-11H-indeno[1,2-c]isoquinoline] was run?
**A.** 0%

**Q.** And the inhibition at 1 µM [1]?
**A.** 25%

**Q.** For `O=c1[nH]c2c(c3ccccc13)Cc1cc(S(=O)(=O)N3CCCC3CO)ccc1-2` (stereo not shown) [Compound 8e, 9-[N-(2-hydroxyprolinyl)sulphonyl]-5,6-dihydro-5-oxo-11H-indeno[1,2-c]isoquinoline], which “% PARS inhibition at 300 nM” value [1] is on record?
**A.** 68%

**Q.** `Nc1ccc2c(c1)Cc1c-2[nH]c(=O)c2ccccc12` [Compound 102, 5,6-Dihydro-5-oxo-9-amino-indeno[1,2-c]isoquinoline] was tested. Which EC50 [2] did it give?
**A.** 95 nM

**Q.** How did the EC50 [2] turn out when `O=C(CO)Nc1ccc2c(c1)Cc1c-2[nH]c(=O)c2ccccc12` [Compound 104] was run?
**A.** 65 nM

**Q.** With `COc1cccc(C2(O)c3ccccc3-c3[nH]c(=O)c4ccccc4c32)c1` (racemic) [Compound 3c, (±) 11-hydroxy-11-(m-methoxyphenyl)-5,6-dihydro-5-oxo-11H-indeno[1,2-c]isoquinoline] as the compound, how does the inhibition at 0.3 µM [1] read?
**A.** 9%

**Q.** And the inhibition at 1 µM [1]?
**A.** 21%

**Q.** What does the source list for `O=c1[nH]c2c(c3ccccc13)Cc1cc(S(=O)(=O)n3ccnc3)ccc1-2` [Compound 8d, 9-[N-(imidazolo-1-yl)sulphonyl]-5,6-dihydro-5-oxo-11H-isoquinoline]?
**A.** % PARS inhibition at 100 nM [1]: 77%; % PARS inhibition at 300 nM [1]: 82%

**Q.** Which EC50 [2] does the source give for `Oc1nc2c(c3ccccc13)Cc1ccc(F)cc1-2` [Compound 99] here?
**A.** 225 nM

**Q.** How did the inhibition at 0.1 µM [1] turn out when `O=c1[nH]c2c3ccc(O)cc3oc2c2ccccc12` [Compound 23b] was run?
**A.** 53%

**Q.** What about the inhibition at 0.3 µM [1] of the same compound?
**A.** 57%

**Q.** What about the inhibition at 1 µM [1] of the same compound?
**A.** 58%

**Q.** Which inhibition at 0.1 µM [1] does the source give for `O=c1[nH]c2c(c3ccccc13)C(O)c1ccccc1-2` (racemic) [Compound 3a, (±) 11-hydroxy-5,6-dihydro-5-oxo-11H-indeno[1,2-c]isoquinoline] here?
**A.** 8%

**Q.** What about the inhibition at 1 µM [1] of the same compound?
**A.** 67%

**Q.** Which “% PARS inhibition at 300 nM” value [1] does the source give for `CN1CCN(S(=O)(=O)c2ccc3c(c2)Cc2c-3[nH]c(=O)c3ccccc23)CC1` [Compound 8a, 9-[N-(4-methylpiperazine-1-yl)sulphonyl]-5,6-dihydro-5-oxo-11H-indeno-[1,2-c]isoquinoline] here?
**A.** 47%

**Q.** For `CN1CCN(CCCNS(=O)(=O)c2ccc3c(c2)Cc2c-3[nH]c(=O)c3ccccc23)CC1` [Compound 8o, 9-[N-[3-(4-methylpiperazino-1-yl]propyl)-aminosulphonyl]-5,6-dihydro-5-oxo-11H-indeno-[1,2c]isoquinoline], which “% PARS inhibition at 100 nM” value [1] is on record?
**A.** 48%

**Q.** What about the “% PARS inhibition at 300 nM” value [1] of the same compound?
**A.** 55%

**Q.** With `CCCNC(=O)Nc1ccc2c(c1)Cc1c-2[nH]c(=O)c2ccccc12` [Compound 105] as the compound, how does the EC50 [2] read?
**A.** 80 nM

**Q.** Which results are given for `CN(C)CCN(CCN(C)C)S(=O)(=O)c1ccc2c(c1)Cc1c-2[nH]c(=O)c2ccccc12` [Compound 8q, 9-[N,N di-(2-[N,N dimethylamino]ethyl)aminosulphonyl]-5,6-dihydro-5-oxo-11H-indeno-[1,2-c]isoquinoline]?
**A.** % PARS inhibition at 100 nM [1]: 20%; % PARS inhibition at 300 nM [1]: 28%

**Q.** For `O=S(=O)(NCCCN1CCOCC1)c1cc2c(cc1F)-c1nc(O)c3ccccc3c1C2` [Compound 107], which EC50 [2] is on record?
**A.** 10 nM

**Q.** Which inhibition at 0.1 µM [1] does the source give for `O=c1[nH]c2c(c3ccccc13)C(N1CCOCC1)c1ccccc1-2` (racemic) [Compound 5e, (±) 11-morpholino-5,6-dihydro-5-oxo-11H-indeno[1,2-c]isoquinoline] here?
**A.** 0%

**Q.** And the inhibition at 1 µM [1]?
**A.** 21%

**Q.** `O=c1[nH]c2c(c3ccccc13)C(N1CCCCC1)c1ccccc1-2` (stereo not shown) [Compound 5d, 11-(piperidin)-5,6-dihydro-5-oxo-11H-indeno[1,2-c]isoquinoline] was tested. Which “% PARS inhibition at 100 nM” value [1] did it give?
**A.** 0%

**Q.** And the “% PARS inhibition at 1 μM” value [1]?
**A.** 48%

**Q.** Which EC50 [2] does the source give for `O=S(=O)(O)c1ccc2c(c1)Cc1c-2nc(O)c2ccccc12` [Compound 110] here?
**A.** 625 nM

**Q.** Which “% PARS inhibition at 100 nM” value [1] does the source give for `O=c1[nH]c2c(c3ccccc13)Cc1cc(S(=O)(=O)N(CCN(CCO)CCO)CCN(CCO)CCO)ccc1-2` [Compound 8r, 9-[N,N-di(2[N,N-dihydroxyethylamino]ethyl)-aminosulphonyl]-5,6-dihydro-5-oxo-11H-indeno-[1,2c]isoquinoline] here?
**A.** 20%

**Q.** What about the “% PARS inhibition at 300 nM” value [1] of the same compound?
**A.** 28%

**Q.** With `NS(=O)(=O)c1ccc2c3[nH]c(=O)c4ccccc4c3n(S(N)(=O)=O)c2c1` [Compound 35a, 6H,11H-Indolo[3,2-c]Isoquinoline-5-one-9,11-disulfonamide] as the compound, how does the inhibition at 0.1 µM [1] read?
**A.** 14%

**Q.** What about the inhibition at 1 µM [1] of the same compound?
**A.** 75%

**Q.** For `O=c1[nH]c2c(c3ccccc13)Cc1cc(F)ccc1-2` [Compound 100], which EC50 [2] is on record?
**A.** 180 nM

**Q.** For `O=c1[nH]c2c(c3ccccc13)Cc1cc(S(=O)(=O)NCCN3CCCCC3)ccc1-2` [Compound 8h, 9-[N-(2-[piperidino-1-yl]ethyl)-aminosulphonyl]-5,6-dihydro-5-oxo-11H-indeno[1,2-c]isoquinoline], which “% PARS inhibition at 100 nM” value [1] is on record?
**A.** 56%

**Q.** What about the “% PARS inhibition at 300 nM” value [1] of the same compound?
**A.** 76%

**Q.** What does the source list for `O=c1[nH]c2c(c3ccccc13)Cc1cc(S(=O)(=O)Cl)ccc1-2` [Compound 7, 9-chlorosulfonyl-5,6-dihydro-5-oxo-11H-indeno[1,2-c]isoquinoline]?
**A.** inhibition at 0.1 µM [1]: 0%; inhibition at 1 µM [1]: 50%

**Q.** Which inhibition at 0.1 µM [1] does the source give for `CCN(CC)C1c2ccccc2-c2[nH]c(=O)c3ccccc3c21` (racemic) [Compound 5b, (±) 11diethylamino-5,6-dihydro-5-oxo-11H-indeno[1,2-c]isoquinoline] here?
**A.** 0%

**Q.** What about the inhibition at 1 µM [1] of the same compound?
**A.** 33%

**Q.** Which results are given for `O=c1[nH]c2c3cc(O)ccc3oc2c2ccccc12` [Compound 23a, 8-Hydroxy-6H-11-oxa-6-aza-benzo[a]fluoren-5-one]?
**A.** inhibition at 0.1 µM [1]: 34%; inhibition at 0.3 µM [1]: 79%; inhibition at 1 µM [1]: 84%

**Q.** For `O=c1[nH]c2c(c3ccccc13)Cc1ccccc1-2` [Compound 6, 5,6-dihydro-5-oxo-11H-indeno[1,2-c]isoquinoline], which inhibition at 0.1 µM [1] is on record?
**A.** 30%

**Q.** And the inhibition at 1 µM [1]?
**A.** 65%

**Q.** For `CN(C)CCNS(=O)(=O)c1ccc2c(c1)Cc1c-2[nH]c(=O)c2ccccc12` [Compound 8g, 9-[N-(2-[N,N-dimethylamino]ethyl)aminosulphonyl]-5,6-dihydro-5-oxo-11H-indeno[1,2-c]isoquinoline], which inhibition at 0.1 µM [1] is on record?
**A.** 34%

**Q.** What about the inhibition at 0.3 µM [1] of the same compound?
**A.** 55%

**Q.** How did the “% PARS inhibition at 300 nM” value [1] turn out when `O=c1[nH]c2c(c3ccccc13)Cc1cc(S(=O)(=O)N3CCN(CCO)CC3)ccc1-2` [Compound 8c, 9-[N-4-(2-hydroxyethylpiperazino-1-yl)-sulphonyl]-5,6-dihydro-5-oxo-1H-indeno-[1,2-c]isoquinoline] was run?
**A.** 27%

**Q.** What does the source list for `COc1ccc2oc3c4ccccc4c(=O)[nH]c3c2c1` [Compound 22a]?
**A.** % PARS inhibition at 100 nM [1]: 51%; % PARS inhibition at 1 μM [1]: 81%

**Q.** Which results are given for `O=C1c2ccccc2-c2[nH]c(=O)c3ccccc3c21` [Compound 2, 5,6-dihydro-5,11-diketo-11H-indeno[1,2-c]isoquinoline]?
**A.** inhibition at 0.1 µM [1]: 16%; inhibition at 1 µM [1]: 60%

**Q.** How did the “% PARS inhibition at 100 nM” value [1] turn out when `CN(C)C1c2ccccc2-c2[nH]c(=O)c3ccccc3c21` (racemic) [Compound 5a, (±) 11-N,N-dimethylamino-5,6-dihydro-5-oxo-11H-indeno[1,2-c]isoquinoline] was run?
**A.** 10%

**Q.** What about the “% PARS inhibition at 1 μM” value [1] of the same compound?
**A.** 55%

**Q.** `O=c1[nH]c2c3ccccc3[nH]c2c2ccccc12` [Compound 31, 6H,11H-Indolo[3,2-c]Isoquinoline-5-one] was tested. Which inhibition at 0.1 µM [1] did it give?
**A.** 18%
